Our source for the IC50 and selectivity ratio values is ChEMBL document CHEMBL4118022, “Unguiculin A and Ptilomycalins E-H, Antimalarial Guanidine Alkaloids from the Marine Sponge Monanchora unguiculata” (J Nat Prod, 2017).

pIC50: −log10 of the molar value.

Broadly, the pIC50 is −log10 of the IC50, conventionally taken in molar units.

One series concerns KB. As to the kind of experiment: Cytotoxicity against human KB cells after 72 hrs by CellTiter96 AQueous one solution assay. In kind it is cell-based.
In a further series the test system is Plasmodium falciparum. The experiment in a line: Antiplasmodial activity against Plasmodium falciparum 3D7 erythrocytic stage assessed as reduction in parasitic LDH activity measured after 48 hrs by colorimetric method. To be noted: 3D7, 48 h. In kind it is functional, organism-based.
Series [1] in a line: Selectivity index, ratio of IC50 for human KB cells to IC50 for Plasmodium falciparum 3D7 erythrocytic stage. In kind it is toxicity. To be noted: KB cells versus Plasmodium falciparum 3D7 erythrocytic stage, read-out: Ratio IC50.

`CC[C@@H]1C=CCC[C@]2(C[C@H]3CC[C@H]4[C@@H](C(=O)OCCCCCCCCCCCCCCCC(=O)O)[C@@]5(CCC[C@H](C)O5)NC(=N2)N34)O1` had a negative logarithm of the IC50 (pIC50) in the series with KB of 5.06.
On to `C[C@@H]1CC[C@H]2[C@@H](C)C(=O)O[C@@H]3O[C@@]4(C)CC[C@@H]1[C@]32OO4` [ARTEMISININ], for which the pIC50 with Plasmodium falciparum was 8.40.
Take `CC[C@@H]1C=CCC[C@]2(C[C@H]3CC[C@H]4[C@@H](C(=O)OCCCCCCCCCCCCCCCC(=O)N(CCCCNC(=N)N)CCCNC(=N)N)[C@@]5(CCC[C@H](C)O5)NC(=N2)N34)O1`: the pIC50 was 6.07 in the series on KB and 6.46 in the series with Plasmodium falciparum. In addition, the selectivity ratio in series [1] was 2.4.
The like results for `CC[C@@H]1C=CCC[C@]2(C[C@H]3CC[C@H]4[C@@H](C(=O)OCCCCCCCCCCCCCCCC(=O)N(CCCCNC(=N)N)CCCNC=O)[C@@]5(CCC[C@H](C)O5)NC(=N2)N34)O1` were, in that order, 5.79, 6.64 and 7.
With `CC[C@@H]1C=CCC[C@]2(C[C@H]3CC[C@H]4[C@@H](C(=O)OCCCCCCCCCCCCCCCC5=NCCCN5CC(O)CCN)[C@@]5(CCC[C@H](C)O5)NC(=N2)N34)O1` (some centres undefined), the negative-log IC50 (pIC50) is 5.93 in the series with KB and 6.62 in the series on Plasmodium falciparum. Moreover, in series [1], the selectivity ratio was 4.9.
On the same counts, the results for `CCCCCCCCCCCCCCCC(=O)N(CCCCNC(=N)N)CCCNC(=N)N` are 5.12, 4.89 and 0.6.
